The record followed here is ChEMBL document CHEMBL1201862, “PubChem BioAssay data set” (2004).

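Test compounds were applied to cells in 96-well plates for 48 hours at 5 doses. At the GI50, growth is halved.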 Calls of active or inactive are those of the source. Cut-off read from the data, not from the text of the source: active = GI50 up to about 1.1 µM and inactive = higher. A value given as a limit tells only on which side of the number the result lay.

Assay in all cases: NCI-60 cell line screen, 48 h
Assay [1] deals with A498.
Assay [2] relates to EKVX.
Assay [3] relates to HL-60.
The subject of assay [4] is LOX IMVI.
For assay [5], the system named is MDA-MB-231.
Assay [6] concerns MDA-MB-435.
Assay [7] relates to MDA-N.
The test system of assay [8] is NCI-H226.
The test system of assay [9] is NCI-H23.
For assay [10], the system named is NCI-H460.
In assay [11] the test system is NCI-H522.
Assay [12] deals with OVCAR-3.
The subject of assay [13] is OVCAR-4.
In assay [14] the test system is OVCAR-5.
In assay [15] the test system is SF-539.
Assay [16] has as its system SN12C.
For assay [17], the system named is SNB-75.
Assay [18] deals with U-251.
Assay [19] deals with ACHN.
For assay [20], the system named is TK-10.

`CN[C@@H]1C[C@H]2O[C@@](C)([C@@H]1OC)n1c3ccccc3c3c4c(c5c6ccccc6n2c5c31)C(=O)N[C@@H]4O`: the GI50 in assay [1] is < 0.0129 µM (active); in [2], 0.0183 µM (active); in assay [3], 0.0877 µM (active); in assay [4], 0.0331 µM (active); in [5], 0.0137 µM (active); in [6] it was 0.0845 µM (active). In addition, the GI50 in [7] is 0.0574 µM (active); in assay [8] it was 0.0194 µM (active); in [9], 0.0338 µM (active); in [10] it was 0.04 µM (active); in [11], 0.0484 µM (active); in assay [12], 0.043 µM (active). For the same compound, the GI50 in assay [13] was 0.0526 µM (active); in assay [14] it was 0.015 µM (active); in assay [15], < 0.0151 µM (active); in assay [16], 0.0208 µM (active); in [17], < 0.0121 µM (active); in assay [18] it was 0.0456 µM (active).

Regarding `N=C(N)N/N=C/c1c(-c2ccc(N)cc2)nc2sccn12`, the GI50 is 25.9 µM (inactive) in assay [1]; 26.9 µM (inactive) in assay [19]; 24.7 µM (inactive) in assay [2]; 16.2 µM (inactive) in assay [3]; 32.9 µM (inactive) in assay [4]; 21 µM (inactive) in assay [5]. Besides, the GI50 in assay [6] was 26.5 µM (inactive); in assay [7] it was 24.5 µM (inactive); in assay [8], > 100 µM (inactive); in assay [9], 28.1 µM (inactive); in assay [10], 26.4 µM (inactive); in assay [11], 26.5 µM (inactive). In addition, the GI50 is 21.8 µM (inactive) in assay [12]; 35.3 µM (inactive) in assay [13]; 21.4 µM (inactive) in assay [14]; 26.9 µM (inactive) in assay [15]; 21.3 µM (inactive) in [16]; 20.9 µM (inactive) in assay [20]. The GI50 in assay [18] was 25.4 µM (inactive).

For `Cc1cc(=O)oc2c(CN(CCCl)CCCl)c(O)ccc12`, the GI50 in assay [1] is 62.7 µM (inactive); in assay [19] it was 13.6 µM (inactive); in [2], > 100 µM (inactive); in assay [3] it was 4.3 µM (inactive); in assay [4] it was 10.7 µM (inactive); in assay [5] it was > 100 µM (inactive). Besides, the GI50 in [6] was 57.3 µM (inactive); in [7] it was 78.2 µM (inactive); in assay [8], 35.3 µM (inactive); in assay [9] it was 43.3 µM (inactive); in assay [10], 17.4 µM (inactive); in assay [11] it was 14.5 µM (inactive). Besides, the GI50 is 80.5 µM (inactive) in assay [12]; > 100 µM (inactive) in [13]; > 100 µM (inactive) in [14]; 20.6 µM (inactive) in [15]; 20.7 µM (inactive) in [16]; 53.5 µM (inactive) in [17]. The GI50 in [18] was 38.4 µM (inactive).

For the compound `CNC(=O)CCCNC(=O)CCCC(=O)N(C)C`, the GI50 in assay [1], in [19], in assay [2], in assay [3], in [4] and in assay [5] was > 100 µM (inactive) each time. Moreover, the GI50 in assay [6], in assay [7], in [8], in assay [9], in [10] and in assay [11] was > 100 µM (inactive) in each case. Further, the GI50 in assay [12], in assay [14], in [15], in assay [16], in assay [17] and in [20] was > 100 µM (inactive) in each case. The GI50 in [18] is > 100 µM (inactive).

In the case of `CC(=O)OCC1OC(SC2=NC(=O)/C(=C/c3ccccc3)S2)C(OC(C)=O)C(OC(C)=O)C1OC(C)=O` (stereo unspecified), the GI50 was 29 µM (inactive) in assay [1]; 48.2 µM (inactive) in assay [19]; 21.2 µM (inactive) in assay [2]; 14.5 µM (inactive) in assay [3]; 22.4 µM (inactive) in assay [4]; 23.3 µM (inactive) in assay [5]. Besides, the GI50 in [6] was 17 µM (inactive); in assay [7] it was 26.8 µM (inactive); in assay [8] it was 33.8 µM (inactive); in assay [9] it was 52.5 µM (inactive); in assay [10], 42.2 µM (inactive); in assay [11], 32.9 µM (inactive). Moreover, the GI50 in assay [12] is 19.7 µM (inactive); in [13] it was 32 µM (inactive); in [14], > 100 µM (inactive); in [15], 23 µM (inactive); in assay [16], 49.8 µM (inactive); in assay [17], 18.2 µM (inactive). The GI50 in assay [18] is 30.9 µM (inactive).

For `Cn1cnc(C(N)=[Se])c1N`, the GI50 in assay [1] is 16.4 µM (inactive); in assay [19] it was 2.6 µM (inactive); in assay [2], 2.05 µM (inactive); in [4] it was 3.26 µM (inactive); in assay [5], 2.07 µM (inactive); in assay [6] it was 5.26 µM (inactive). Also, the GI50 in assay [7] is 4.98 µM (inactive); in assay [8], 3.11 µM (inactive); in assay [9], 3 µM (inactive); in [10], 0.183 µM (active); in [11], 2.19 µM (inactive); in [12], 2.03 µM (inactive). The GI50 is 3.56 µM (inactive) in assay [14]; 2.02 µM (inactive) in assay [15]; 2.29 µM (inactive) in assay [16]; 2.2 µM (inactive) in assay [17]; 2.64 µM (inactive) in assay [20]; 1.35 µM (inactive) in assay [18].

In the case of `O=c1cc(/C=C/c2ccc(O)c(O)c2)oc(/C=C/c2ccc(O)c(O)c2)c1`, the GI50 is 3.84 µM (inactive) in assay [1]; 4.84 µM (inactive) in assay [19]; 6.53 µM (inactive) in assay [2]; 3.61 µM (inactive) in assay [4]; 4.44 µM (inactive) in [5]; 1.43 µM (inactive) in assay [6]. In addition, the GI50 in assay [7] was 2.24 µM (inactive); in assay [8], 5.16 µM (inactive); in assay [9], 4.57 µM (inactive); in assay [10], 5.02 µM (inactive); in assay [11], 1.24 µM (inactive); in assay [12], 3.19 µM (inactive). Moreover, the GI50 in [13] was 3.78 µM (inactive); in assay [14], 17.2 µM (inactive); in assay [15], 2.75 µM (inactive); in assay [16], 4.29 µM (inactive); in [17], 4.41 µM (inactive); in assay [20], 7.33 µM (inactive). Also, the GI50 in assay [18] is 2.74 µM (inactive).

Consider `CC(C)=NNC1=NC(C)(C)P(=O)(NNc2ncccn2)S1` (stereo unspecified), for which the GI50 in assay [1], in assay [19], in assay [2], in [5], in assay [6] and in assay [7] was > 100 µM (inactive) throughout. Further, the GI50 in assay [9], in [10], in assay [11], in assay [12], in assay [13] and in [14] was > 100 µM (inactive) each time. Besides, the GI50 in [15], in assay [20] and in assay [18] was > 100 µM (inactive) each time.

As to `COC(=O)[C@H]1ON2O[C@H](OC3CCCC[C@@H]3c3ccccc3)C[C@@H]3CC[C@H]1[C@@]32C` (stereo partly specified), the GI50 was > 100 µM (inactive) in [1]; > 100 µM (inactive) in [19]; 92.9 µM (inactive) in assay [2]; 9.66 µM (inactive) in assay [3]; > 100 µM (inactive) in assay [4]; > 100 µM (inactive) in assay [5]. Moreover, the GI50 was > 100 µM (inactive) in assay [6]; > 100 µM (inactive) in assay [7]; 49.4 µM (inactive) in [8]; > 100 µM (inactive) in assay [9]; > 100 µM (inactive) in [10]; 45.9 µM (inactive) in [11]. Besides, the GI50 in [13] is > 100 µM (inactive); in assay [14] it was > 100 µM (inactive); in [16] it was 31.6 µM (inactive); in assay [17], 36.4 µM (inactive); in assay [20], > 100 µM (inactive); in assay [18] it was 77.6 µM (inactive).

Regarding `Cc1ccccc1S(=O)(=O)OC1NS(=O)(=O)c2ccccc21` (stereo unspecified), the GI50 in assay [1], in assay [19], in [2], in [4], in assay [5] and in assay [6] was > 100 µM (inactive) in each case. For the same compound, the GI50 in assay [7], in assay [9], in [10], in assay [11], in assay [12] and in assay [13] was > 100 µM (inactive) throughout. For the same compound, the GI50 in assay [14], in assay [15], in assay [16], in assay [17], in assay [20] and in assay [18] was > 100 µM (inactive) in each case.

As for `Nc1ccc2c(c1)S(=O)(=O)c1cc(N)ccc1-2`, the GI50 in assay [1] is > 100 µM (inactive); in assay [19], > 100 µM (inactive); in [2] it was > 100 µM (inactive); in assay [3], 78.5 µM (inactive); in [4], > 100 µM (inactive); in [5], > 100 µM (inactive). Besides, the GI50 in [6], in [7], in assay [8], in assay [9], in [10] and in assay [11] was > 100 µM (inactive) in each case. Besides, the GI50 in [12], in [13], in [14], in assay [15], in [16] and in assay [20] was > 100 µM (inactive) in each case. Also, the GI50 in [18] is > 100 µM (inactive).
